Where “and” joins values, the source holds several entries; their conditions need not be identical. Identical values can stand only once.
Key:
[1] = target: anabolic plant HPPD (p-hydroxyphenylpyruvate dioxygenase) from maize (Zea mays, UniProt A0A1D6H1G0); type: biochemical; conditions: for IC50: Table 1 of compounds of formula (I), HPPD inhibition, IC50 is a molar concentration
Protocol: A modified form of the method for measuring catabolic HPPDs from human liver has been described by Lindblad (Lindblad, B. (1971) Clin. Chim. Acta 34, 113-121). End-point measurements are used in this case for detecting ^14C—CO2, which is liberated from ^14C-p-hydroxyphenylpyruvate by the enzymatic activity of HPPD.
To enrich the anabolic HPPD from plant tissues, young etiolated maize plants were homogenized in extraction buffer (20 mM phosphate buffer pH 7.0; 0.14 M KCl; 0.1 mg/ml glutathione and 1% insoluble polyvinylpyrrolidone) for 3×10 seconds, for example in a Waring blender. The extract was filtered (all other isolation steps were carried out at 4° C.) and centrifuged (20 minutes; 10,000 g). The supernatant was subjected to fractional ammonium sulfate precipitation. […] At this stage, it was possible to store the enzyme at −80° C. following dialysis in a suitable buffer, such as, for example, 20 mM phosphate buffer pH 7.0; 0.14 M KCl; 0.1 mg/ml glutathione.
The enzyme assays were performed in 20 ml polyethylene screw-top containers. Two hypodermic needles (0.9×40 mm) were pushed through the screw-top cap. One of the hypodermic needles was bent to form a hook onto which a small filter paper disk of diameter 10 mm was placed. The filter paper was moistened with 25 μl of methylbenzethonium hydroxide (Sigma). The second hypodermic needle was used for injecting start and stop solution into the screw-top container.
The enzyme reaction mix contained:
1 ml of 0.1 M phosphate buffer, pH 7.3;
2 g/l of bovine liver catalase;
100 μl of a mixture of 3 mM dichlorophenol-indophenol and
150 mM glutathione (reduced);
25 μl of acetone (or potential inhibitors dissolved in acetone) and
enzyme in a total volume of 1,635 μl.
After preincubation for 5 minutes at 30° C., the reaction was started by injecting 800 μl of ^14C-p-hydroxyphenylpyruvate. The reaction was stopped by injecting 600 μl of 1 N H2SO4, incubation was continued for 15 minutes, and the radioactivity which was liberated was determined on the small filter paper disks in a liquid scintillation counter.
(§1) FEBS-Letters, 1993, 318 (2), 162-166.

Lemna gibba [2] = experiment: Growth inhibition of Lemna; type: in vivo; conditions: for inhibition at 100 µM: 10^−4 M; for inhibition at 10 µM: 10^−5 M; for inhibition at 1 µM: 10^−6 M
Text: as §1

Lemna gibba [3] = experiment: Neutralization of the effect of SC-0051 by homogentisic acid, number of Lemna gibba plants; type: in vivo; conditions: day six
Protocol: HPPD catalyzes the transformation of p-hydroxyphenylpyruvate to homogentisic acid. If HPPD inhibition is responsible for the herbicidal activity of an inhibitor, then it should be possible to neutralize the herbicidal effect by supplementation with homogentisic acid. […] The plant was grown in a sterile aqueous medium supplemented as described in Table 1.
Batches of three Lemna plants in 100 ml of sterile medium were incubated for six days with sterile-filtered supplements. […] The number of newly formed plants was determined on day six.

[4] = test system: plastoquinone biosynthesis in wheat; experiment: Incorporation of radioactivity from 14C-tyrosine into plastoquinone in wheat (thin-layer chromatography); type: in vivo; conditions: wheat plants sprayed with 100 g/ha in screening formulation, FIG. 1
Protocol: Thin-layer chromatography analysis of the incorporation of radioactivity from ^14C-tyrosine into plastoquinone. […] The lipophilic metabolites of the wheat were extracted using chloroform, separated on silica gel 60 HPTLC plates using chloroform: diethyl ether (99:1), and the radioactivity was analyzed by thin-layer scanner.

Chain of anabolic plant HPPD (p-hydroxyphenylpyruvate dioxygenase) from maize (A0A1D6H1G0 entry or part of it): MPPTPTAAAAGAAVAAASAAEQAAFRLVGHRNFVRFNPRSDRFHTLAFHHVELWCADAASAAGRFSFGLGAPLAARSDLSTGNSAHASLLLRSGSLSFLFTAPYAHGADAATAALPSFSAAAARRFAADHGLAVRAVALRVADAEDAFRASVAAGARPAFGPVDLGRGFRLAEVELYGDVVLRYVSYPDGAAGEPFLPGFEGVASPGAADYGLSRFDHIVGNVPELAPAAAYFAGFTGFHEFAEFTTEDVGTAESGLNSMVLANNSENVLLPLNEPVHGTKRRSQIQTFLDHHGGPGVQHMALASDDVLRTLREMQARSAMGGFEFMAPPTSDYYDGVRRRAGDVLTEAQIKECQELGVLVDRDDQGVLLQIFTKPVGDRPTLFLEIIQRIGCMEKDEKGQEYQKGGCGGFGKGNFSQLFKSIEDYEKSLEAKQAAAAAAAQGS

Molecule | IC50 [1] [nM] | inhibition at 100 µM (Lemna gibba [2]) [%] | inhibition at 10 µM (Lemna gibba [2]) [%] | inhibition at 1 µM (Lemna gibba [2]) [%] | melting point | other results
2-(2,4-Dichlorobenzoyl)-1,4-quinone [Example No. 91] | 18 | – | – | – | – | –
Cc1cc(Cl)cc(C(=O)c2ccc(S(C)(=O)=O)cc2Cl)c1O [Example No. 100, 2,5′-Dichloro-2′-hydroxy-3′-methyl-4-methylsulfonylbenzophenone] | 6.2 | 98 | 96 | 92 | 175 to 180 °C | –
CS(=O)(=O)c1ccc(C(=O)c2c(O)cc(Cl)cc2Cl)c(Cl)c1 [Example No. 183, 2,2′,4′-Trichloro-6′-hydroxy-4-methylsulfonylbenzophenone] | 4.8 | 98 | 82 | 81 | 123 to 126 °C and 123 to 125 °C | –
CS(=O)(=O)c1ccc(C(=O)C2C(=O)CCCC2=O)c(Cl)c1 [SC-0051, 2-(2-chloro-4-methanesulfonylbenzoyl)-1,3-cyclohexanedione] | – | – | – | – | – | Number of L. gibba plants (Lemna gibba [3]; 10^−7 M SC-0051, medium supplemented with 1 mM HGA): 32; Number of L. gibba plants (Lemna gibba [3]; 10^−7 M SC-0051, medium supplemented with 1 mM HPPD): 2; Number of L. gibba plants (Lemna gibba [3]; 10^−7 M SC-0051, no supplementation of the medium, start three plants): 3; Plastoquinone biosynthesis (incorporation of radioactivity from tyrosine into plastoquinone) [4]: inhibited
CC1(C)CON(Cc2ccccc2Cl)C1=O [clomazone, reference compound] | – | – | – | – | – | Inhibition of HPPD (in words) ([1]; partially purified maize HPPD, FIG. 2): no inhibitory action
CS(=O)(=O)c1ccc(C(=O)c2cc(C(=O)O)ccc2O)c(Cl)c1 [compound 88] | 70 | – | – | – | 254 to 256 °C | –

From patent US6555714B1, “Inhibitors of hydroxyphenylpyruvate dioxygenase and an assay for identification of inhibitors” (Hoechst Aktiengesellschaft, priority 1993, dated 2003)
